{"source": "patent US20210196714A1", "about": "“COMPOSITIONS AND METHODS FOR TREATING DISORDERS CHARACTERIZED WITH ABERRANT RAS/MAPK SIGNALING” (Duke University, priority 2018, published 2021)", "key": {"[1]": {"tested_on": "zebrafish kmt2d morphants", "experiment": "Jaw defect (MK-CH cartilage distance, Alcian blue) in kmt2d morphants", "type": "in vivo", "conditions": "for jaw defect, distance between MK and CH cartilages: 100 nM, 5 dpf", "procedure": "To test the first criterion, the CE rescue paradigm was repeated four times by two different investigators, each using independent zebrafish adult stocks.\nMorpholinos (MO) were obtained from Gene Tools (Gene Tools, LLC, Philomath, Oreg., USA) and have been described previously (see, Bogershausen, N. et al. J Clin Invest 125, 3585-99 (2015)); kmt2d-MO: 5′-[…]-3′(SEQ ID NO: 1) (5 ng); kdm6a-MO: 5′-[…] (SEQ ID NO: 2) (10 ng). kmt2d-MO and kdm6a-MO was injected into wild type (WT) Ekkwill (EK) zebrafish embryos obtained from natural matings at the 1-4 cell stage. CRISPR target sequences (rap1a: 5′-[…]-3′ (SEQ ID NO: 3) [120 pg], rap1b: 5′-[…]-3′ (SEQ ID NO: 4) [120 pg] (see, Bogershausen, N. et al. J Clin Invest 125, 3585-99 (2015)), and kmt2d: 5′-[…] (SEQ ID NO: 5) [50 pg]) were identified by crispr.mit.edu and cloned into pT7-gRNA (Addgene, Cambridge, USA) following the protocol described in http://www.addgene.org/crispr/Chen/. Guide (g)RNAs were synthesized using the T7 MEGAshortscript kit (ThermoFisher Scientific). An injection solution of gRNA plus 100 pg Cas9 protein (PNA Bio) was injected into wild type Ekkwill (EK) zebrafish embryos obtained from natural matings at the 1-cell stage. Embryos were treated with compound at the 8-cell stage. All compounds were dissolved in dimethyl sulfoxide (DMSO; 10 mM), and subsequently diluted with water to 100 μM. Using egg water, we then diluted the 100 μM solution to the concentration specific to each experiment in egg water. Embryos were incubated at 28.5° C. and egg water containing compound was replaced daily until phenotyping, mass spectrometry, or immunoblotting analysis.\nFor convergence and extension (CE) phenotyping, embryos were scored as described (see, Leitch, C. C. et al. Nat Genet 40, 443-8 (2008)) at the 8-10 somite stage, and images were captured using an AZ100 microscope and NIS Elements software (Nikon). To assess mandibular phenotypes, Alcian blue staining was used to stain cartilage structures in 5 dpf larvae as described (see, Chassaing, N. et al. J Med Genet 49, 373-9 (2012)). Stained larvae were imaged in glycerol using an SMZ745T stereomicroscope (Nikon). The distance between Meckel's (MK) and ceratohyal (CH) cartilages was measured on ventral bright field images with Image J (NIH). For brain cell proliferation assays, injected embryos were fixed in Dent's solution at 2 dpf. […] Fluorescence signal on embryo heads was imaged with the Nikon AZ100 microscope and DS-Qi1MC digital camera using […] Z-stacks to generate extended depth of focus images. Cell numbers were quantified using the ImageJ ICTN plugin (NIH). […]"}, "[2]": {"experiment": "Mass spectrometry of compound exposure in zebrafish embryos", "type": "in vivo", "conditions": "for detection of compound in embryos by MS: bathing, 100 nM or 1 μM, five days", "procedure": "FIG. 5: Successful delivery of small molecules into zebrafish embryos. (a) Experimental design and sample preparation for the mass spectrometry (MS) analysis of compound concentration. (b) Quantitative MS analysis results of compound exposure in embryos. The right-most two columns give the concentrations of each compound detected by MS in zebrafish, quantifying in vivo exposures resulting from egg water compound doses of 100 nM and 1 μM.\nFor this purpose, mass spectrometry (MS) was performed in embryos treated with each of compounds 2 and 8. Wild-type embryos were treated with 100 nM (the concentration used for the rescue experiments) or 1 μM (as a positive detection threshold given that the intracellular concentration of each compound is unknown at the beginning of the experiment). After five days of treatment, embryos were harvested and subjected to MS analysis (FIG. 5A).\nWT EK embryos were transferred to a 12-well plate at the 8-cell stage and bathed in egg water containing 0.001% DMSO or 100 nM of each compound (n=30/condition). Embryos were incubated at 28° C.; egg water containing compound was refreshed every 24 hours until harvest. Compound exposure was assessed essentially as described (see, Berghmans, S. et al. J Pharmacol Toxicol Methods 58, 59-68 (2008)); larvae were anaesthetized on ice, washed once with fresh compound-free ice-cold egg water, washed once with ice-cold PBS, and then transferred to a microfuge tube and centrifuged briefly before removing all excess liquid. Samples were macerated using a plastic pestle and frozen at −20° C. prior to analysis. Mass spectrometry analysis was conducted at Covance Laboratories (Cary, N.C., USA). Briefly, the macerated larvae were diluted in 1 ml water/acetonitrile (50/50), sonicated for 3×10 s and vortexed. For all compounds, a control sample containing embryos exposed to 0.001% DMSO was analyzed as a control. Calibration curves were generated by spiking aliquots of control zebrafish homogenate (prepared as described above) with known amounts of compound 29 (N3521-4-2)."}}, "note": "“Also recorded” adds a separate entry of the source."}
{"smiles": "CC(C)c1nc(-c2cccc(NS(=O)(=O)c3c(F)cccc3F)c2F)c(-c2ccnc(N)n2)s1", "note": "[Compound 8, desmethyl-Dabrafenib]", "values": [{"measurement": "jaw defect, distance between MK and CH cartilages", "setting": "[1]", "result": "ameliorates this defect; also recorded: rescue significantly"}, {"measurement": "jaw defect, distance between MK and CH cartilages", "setting": "[1]; listed as dmDf", "result": "able to rescue the jaw layout"}, {"measurement": "jaw rescue at dosages beyond 100 nM", "setting": "[1]; dose response, above 100 nM up to 1 μM", "result": "higher dosages did not improve efficacy any further"}, {"measurement": "exposure of inhibitor in embryos (MS quantitation)", "setting": "[2]; 100 nM dose", "result": "sub-nanomolar"}, {"measurement": "concentration at 5 days", "setting": "[2]; EK (wild-type), zebrafish, whole embryo/larva homogenate, other: bathing in egg water containing compound, egg water dose 100 nM, read-out: effective in vivo exposure (MS)", "result": 0.26, "unit": "nM"}, {"measurement": "detection of compound in embryos by MS", "setting": "[2]", "result": "Detectable concentrations"}]}
{"smiles": "CC[C@@H](CO)Nc1ncc(C)c(-c2c[nH]c(C(=O)N[C@H](CO)c3cccc(Cl)c3)c2)n1", "note": "[Compound 2, N-((S)-1-(3-chlorophenyl)-2-hydroxyethyl)-4-(2-(((S)-1-hydroxybutan-2-yl)amino)-5-methylpyrimidin-4-yl)-1H-pyrrole-2-carboxamide]", "values": [{"measurement": "jaw defect, distance between MK and CH cartilages", "setting": "[1]", "result": "ameliorates this defect; also recorded: rescue significantly"}, {"measurement": "detection of compound in embryos by MS", "setting": "[2]", "result": "Detectable concentrations"}]}
